Source: the NIST ThermoML archive (doi:10.1007/s10765-007-0346-0)
± gives the expanded uncertainty stated by the source.

Key:
[1] = 101.33 kPa, Liquid, Capillary tube (Ostwald / Ubbelohde) method
[2] = xn = mol fraction of the nth substance listed; details: 101 kPa, Liquid, Capillary tube (Ostwald / Ubbelohde) method

CCCCCCC [heptane]
[1]
Details	kinematic viscosity [m2/s]
283.15 K	6.697e-07 ± 5.5e-09
298.15 K	5.754e-07 ± 4.8e-09
313.15 K	4.986e-07 ± 4.3e-09

CCCCCC [hexane] + CC(C)OC(C)C
[2], x2 = 0
Details	kinematic viscosity [m2/s]
283.15 K	5.125e-07 ± 4.5e-09
298.15 K	4.493e-07 ± 4e-09
313.15 K	4.039e-07 ± 3.6e-09

COC(C)(C)C [2-methoxy-2-methylpropane] + CCC(C)CC
[2], x1 = 1
Details	kinematic viscosity [m2/s]
283.15 K	5.191e-07 ± 3.8e-09
298.15 K	4.529e-07 ± 3.4e-09
313.15 K	3.961e-07 ± 3.1e-09

COC(C)(C)C [2-methoxy-2-methylpropane] + CCCCCCC
kinematic viscosity [m2/s], [2]
Details	283.15 K	298.15 K	313.15 K
x1 = 0.0431	6.606e-07 ± 5.5e-09	5.683e-07 ± 4.9e-09	4.926e-07 ± 4.3e-09
x1 = 0.0987	6.512e-07 ± 5.4e-09	5.599e-07 ± 4.7e-09	4.862e-07 ± 4.2e-09
x1 = 0.1892	6.353e-07 ± 5.2e-09	5.461e-07 ± 4.5e-09	4.767e-07 ± 4e-09
x1 = 0.2958	6.168e-07 ± 4.9e-09	5.3e-07 ± 4.3e-09	4.658e-07 ± 3.9e-09
x1 = 0.3844	6.03e-07 ± 4.7e-09	5.169e-07 ± 4.2e-09	4.569e-07 ± 3.7e-09
x1 = 0.4986	5.845e-07 ± 4.5e-09	5.012e-07 ± 4e-09	4.454e-07 ± 3.6e-09
x1 = 0.6007	5.7e-07 ± 4.3e-09	4.881e-07 ± 3.8e-09	4.347e-07 ± 3.4e-09
x1 = 0.6999	5.567e-07 ± 4.2e-09	4.777e-07 ± 3.7e-09	4.246e-07 ± 3.3e-09
x1 = 0.7998	5.421e-07 ± 4e-09	4.68e-07 ± 3.6e-09	4.144e-07 ± 3.2e-09
x1 = 0.8997	5.298e-07 ± 3.9e-09	4.604e-07 ± 3.5e-09	4.047e-07 ± 3.1e-09
x1 = 0.9499	5.241e-07 ± 3.8e-09	4.566e-07 ± 3.4e-09	4.004e-07 ± 3.1e-09

CCC(C)CC [3-methylpentane] + CCCCOCCCC
kinematic viscosity [m2/s], [2]
Details	283.15 K	298.15 K	313.15 K
x2 = 0.0498	5.151e-07 ± 4.4e-09	4.505e-07 ± 3.9e-09	4.026e-07 ± 3.6e-09
x2 = 0.1011	5.383e-07 ± 4.6e-09	4.655e-07 ± 4e-09	4.176e-07 ± 3.7e-09
x2 = 0.1884	5.796e-07 ± 4.9e-09	4.975e-07 ± 4.3e-09	4.427e-07 ± 3.9e-09
x2 = 0.2989	6.32e-07 ± 5.3e-09	5.415e-07 ± 4.6e-09	4.712e-07 ± 4.1e-09
x2 = 0.4033	6.843e-07 ± 5.6e-09	5.846e-07 ± 4.9e-09	5.031e-07 ± 4.3e-09
x2 = 0.4999	7.344e-07 ± 6e-09	6.244e-07 ± 5.2e-09	5.374e-07 ± 4.6e-09
x2 = 0.5992	7.877e-07 ± 6.4e-09	6.669e-07 ± 5.5e-09	5.73e-07 ± 4.8e-09
x2 = 0.7016	8.46e-07 ± 6.8e-09	7.116e-07 ± 5.8e-09	6.088e-07 ± 5.1e-09
x2 = 0.799	9.03e-07 ± 7.2e-09	7.548e-07 ± 6.1e-09	6.442e-07 ± 5.3e-09
x2 = 0.9001	9.657e-07 ± 7.7e-09	8.021e-07 ± 6.5e-09	6.804e-07 ± 5.6e-09
x2 = 0.9496	9.979e-07 ± 7.9e-09	8.257e-07 ± 6.7e-09	6.992e-07 ± 5.7e-09

CCC(C)CC [3-methylpentane]
[1]
Details	kinematic viscosity [m2/s]
283.15 K	4.928e-07 ± 4.2e-09
298.15 K	4.366e-07 ± 3.8e-09
313.15 K	3.881e-07 ± 3.5e-09

CC(C)OC(C)C [diisopropyl ether]
[1]
Details	kinematic viscosity [m2/s]
283.15 K	4.959e-07 ± 4.3e-09
298.15 K	4.392e-07 ± 3.8e-09
313.15 K	3.861e-07 ± 3.5e-09

CCC(C)CC [3-methylpentane] + COC(C)(C)C
kinematic viscosity [m2/s], [2]
Details	283.15 K	298.15 K	313.15 K
x2 = 0.048	4.915e-07 ± 4.2e-09	4.361e-07 ± 3.8e-09	3.87e-07 ± 3.5e-09
x2 = 0.0967	4.906e-07 ± 4.2e-09	4.357e-07 ± 3.8e-09	3.859e-07 ± 3.4e-09
x2 = 0.1961	4.893e-07 ± 4.1e-09	4.348e-07 ± 3.7e-09	3.843e-07 ± 3.4e-09
x2 = 0.2982	4.895e-07 ± 4e-09	4.347e-07 ± 3.6e-09	3.836e-07 ± 3.3e-09
x2 = 0.3995	4.906e-07 ± 3.9e-09	4.351e-07 ± 3.6e-09	3.834e-07 ± 3.2e-09
x2 = 0.4983	4.923e-07 ± 3.9e-09	4.361e-07 ± 3.5e-09	3.836e-07 ± 3.2e-09
x2 = 0.5992	4.954e-07 ± 3.8e-09	4.379e-07 ± 3.5e-09	3.85e-07 ± 3.1e-09
x2 = 0.6984	4.995e-07 ± 3.8e-09	4.406e-07 ± 3.4e-09	3.863e-07 ± 3.1e-09
x2 = 0.7978	5.048e-07 ± 3.8e-09	4.435e-07 ± 3.4e-09	3.888e-07 ± 3.1e-09
x2 = 0.8996	5.113e-07 ± 3.8e-09	4.478e-07 ± 3.4e-09	3.918e-07 ± 3.1e-09
x2 = 0.9491	5.145e-07 ± 3.8e-09	4.502e-07 ± 3.4e-09	3.937e-07 ± 3.1e-09
